The record followed here is patent publication US20230099031A1, “BIFUNCTIONAL AGENTS FOR PROTEIN RECRUITMENT AND/OR DEGRADATION” (Orionis Biosciences, Inc., priority 2019, published 2023).

The target in one test is T1, DHFR (UniProt P0ABQ4+Q96SW2).
T1 construct: Full size proteins are fused for each of the target proteins tested; expressed in transfected cells; host or cells: HEK293T
Description: Recruitment Assay (MAPPIT-like): DHFR recruitment to CRBN, pCLG-DHFR+pMG1-CRBN. The class given is cell-based, E. coli. The conditions noted are these: HEK293T cells, luciferase 24 hours after compound treatment; read-out: Recruitment EC50 (M), target protein DHFR. As for the experimental part:
(§1) In this experimental set-up, cells are transfected with a construct encoding a CRBN-fusion protein and another one encoding a substrate-fusion protein. Test compound activity is assessed with increasing concentrations of test compounds (dose-response studies) to monitor the ability to promote CRBN-ligand-induced protein interaction.
(§2) Full size proteins are fused for each of the target proteins tested, except in the case of IKZF1 where isoform 7 is used, and BRD4, where isoform 3 is applied. For the study, the following construct combinations are used: IKZF1 recruitment: pSEL-CRBN+pMG1-IKZF1(isoform 7); ASS1 recruitment: pSEL-CRBN+pMG1-ASS1; SALL4 recruitment: pSEL-SALL4+pMG1-CRBN; DHFR recruitment: pCLG-DHFR+pMG1-CRBN; ESR1 recruitment: pSEL-CRBN+pMG1-ESR1; BRD4 recruitment: pSEL-CRBN+pMG1-BRD4(isoform 3). Cells are treated with erythropoietin (Epo; where pSEL-type receptor fusions constructs are used) or leptin (in the case pCLG-type receptor fusion constructs are applied) without or with the indicated dose of test compound at 24 hours after transfection. Luciferase activity is measured 24 hours after test compound treatment using the Luciferase Assay System kit (PROMEGA, Madison, Wis.) with an Ensight plate reader (PERKIN ELMER LIFE SCIENCES, Waltham, Mass.). Data points depict fold induction of the average luciferase activity of triplicate samples from Epo or leptin+test compound treated cells versus Epo or leptin only treated cells. Error bars represent standard deviations. Curves are fit using 4-parameter nonlinear regression in […] PRISM software.
Error bars represent standard deviations and curves were fit using 4-parameter nonlinear regression in […] PRISM software.

The target in the next test is T2, IKZF1 (Homo sapiens, UniProt Q13422+Q96SW2).
T2 construct: expressed in transfected cells; host or cells: HEK293T
Description: Recruitment Assay (MAPPIT-like): IKZF1 recruitment, pSEL-CRBN+pMG1-IKZF1(isoform 7). To be noted: recruitment of IKZF1, protocol of Example 2; read-out: EC50_IKZF1. The class given is cell-based. As for the experimental part: as §1, §2

Another test addresses T3, ASS1 (Homo sapiens, UniProt P00966+Q96SW2).
T3 construct: Full size proteins are fused for each of the target proteins tested; expressed in transfected cells; host or cells: HEK293T
Description: Recruitment Assay (MAPPIT-like): ASS1 recruitment, pSEL-CRBN+pMG1-ASS1. The class given is cell-based. To be noted: recruitment of ASS1, protocol of Example 2; for EC50: read-out: EC50_ASS1. As for the experimental part: as §1, §2

Another test addresses T4, CRBN (Homo sapiens, UniProt Q96SW2).
T4 construct: expressed in transfected cells; host or cells: HEK293T
Description: Competition Assay: MAPPIT-like, competition with trimethoprim-lenalidomide hybrid ligand for binding to CRBN in HEK293T cells. The class given is cell-based. To be noted: protocol and reagents of Example 1; read-out: IC50 Competition.

For another test, the target named is T5, SALL4 (Homo sapiens, UniProt Q96SW2+Q9UJQ4).
T5 construct: Full size proteins are fused for each of the target proteins tested; expressed in transfected cells; host or cells: HEK293T
Put plainly: Recruitment Assay (MAPPIT-like): SALL4 recruitment, pSEL-SALL4+pMG1-CRBN. The class given is cell-based. The conditions noted are these: recruitment of SALL4, protocol of Example 2; read-out: EC50_SALL4. As for the experimental part: as §1, §2

Where only a bound is given, the exact number is not on record here.

As for `COc1cc(Cc2cnc(N)cc2N)cc(OC)c1OCCCCC(=O)NCCOCCOCCOCCNC(=O)COc1ccc2nc(C(=O)Cc3ccc4c(c3)C(=O)N(C3CCC(=O)NC3=O)C4)ccc2c1` (stereo not shown) [Compound 5.10], the EC50 on DHFR was found to be 7.95e-08 M.

With `COc1cc(Cc2cnc(N)nc2N)cc(OC)c1OCCCCC(=O)NCCOCCOCCOCCNC(=O)c1cccc(CNC(=O)CNc2ccc3c(c2)C(=O)N(C2CCC(=O)NC2=O)C3)c1` (stereo not shown) [Compound 5.12], the EC50 at DHFR was 3.55e-08 M.

Consider `COc1cc(Cc2cnc(N)nc2N)cc(OC)c1OCCCCC(=O)NCCOCCOCCOCCNC(=O)COc1ccc(Br)c2c1C(=O)N(C1CCC(=O)NC1=O)C2` (stereo not shown) [Compound 5.13], for which the EC50 at DHFR is 4.69e-07 M.

On to `COc1cc(Cc2cnc(N)nc2N)cc(OC)c1OCCCCC(=O)NCCOCCOCCOCCNC(=O)c1ccc2ncnc(Nc3ccc4c(c3)C(=O)N(C3CCC(=O)NC3=O)C4)c2c1` (stereo not shown) [Compound 5.19], for which the EC50 on DHFR amounted to 4.2e-09 M.

As a reminder, the IC50 is the concentration that inhibits the measured activity by half. Regarding `O=C1CCC(N2Cc3cc(NCC(=O)Nc4ccccc4)ccc3C2=O)C(=O)N1` (stereo not shown) [Compound C35797, 2-[[2-(2,6-dioxo-3-piperidyl)-1-oxo-isoindolin-5-yl]amino]-N-phenyl-acetamide], the EC50 amounted to 1330 nM on IKZF1 and 1080 nM at SALL4. Moreover, the “EC50_ASS1 (M)” value on ASS1 is on record as “>>”. For the same molecule, on CRBN, the IC50 came out at 851 nM.

As to `O=C(CNc1ccc2c(c1)CN(C1CCC(=O)NC1=O)C2=O)NCc1ccccc1` (stereo not shown) [Compound C35856, N-benzyl-2-[[2-(2,6-dioxo-3-piperidyl)-1-oxo-isoindolin-5-yl]amino]acetamide], the results for the EC50 at IKZF1 and on SALL4 were 1150 nM and 188 nM, respectively. Further, the “EC50_ASS1 (M)” value on ASS1 is reported as “>>”. Further, the IC50 on CRBN was found to be 484 nM.

As for `N#Cc1ccc2c(c1)C(=O)N(C1CCC(=O)NC1=O)C2` (stereo not shown) [Compound C48007, 2-(2,6-dioxo-3-piperidyl)-3-oxo-isoindoline-5-carbonitrile], the EC50 at IKZF1 came out at 1620 nM; on SALL4, 430 nM. For the same molecule, the “EC50_ASS1 (M)” value on ASS1 is on record as “>>”. The IC50 at CRBN was 1340 nM.

Turning to `O=C1CCC(N2Cc3c(cccc3-c3ccccc3)C2=O)C(=O)N1` (stereo not shown) [Compound C48014, 3-(1-oxo-4-phenyl-isoindolin-2-yl)piperidine-2,6-dione], the EC50 on IKZF1 was 1240 nM; at ASS1, 921 nM; on SALL4, 62.1 nM. In addition, the IC50 on CRBN is 24.3 nM.

For `CC1c2ccccc2C(=O)N1C1CCC(=O)NC1=O` (stereo not shown) [Compound C51383, 3-(1-methyl-3-oxo-isoindolin-2-yl)piperidine-2,6-dione], the EC50 is 1520 nM on IKZF1, 1700 nM at ASS1 and 59.3 nM on SALL4. The IC50 at CRBN was 190 nM.

With `Nc1cccc2nnn(C3CCC(=O)NC3=O)c(=O)c12` (stereo not shown) [Compound C59904, 3-(5-amino-4-oxo-1,2,3-benzotriazin-3-yl)piperidine-2,6-dione], the EC50 is 122 nM at IKZF1, 698 nM on ASS1 and 33 nM at SALL4. Besides, the IC50 at CRBN came out at 704 nM.

`O=C1CCC(N2Cc3c(ccc4c3OCO4)C2=O)C(=O)N1` (stereo not shown) [Compound C67858, 3-(6-oxo-8H-[1,3]dioxolo[4,5-e]isoindol-7-yl)piperidine-2,6-dione]: the values for the EC50 at IKZF1, on ASS1 and on SALL4 were 569 nM, 884 nM and 29.3 nM, respectively. Also, the concentration for half-maximal inhibition (IC50) on CRBN stood at 106 nM.

On to `CN(C)c1ccc2c(c1)CN(C1CCC(=O)NC1=O)C2=O` (stereo not shown) [Compound C98103, 3-[5-(dimethylamino)-1-oxo-isoindolin-2-yl]piperidine-2,6-dione], for which the EC50 was 1290 nM at IKZF1 and below 13.7 nM on SALL4. For the same molecule, the “EC50_ASS1 (M)” value at ASS1 is given as “>>”. Moreover, the IC50 on CRBN was found to be 145 nM.

Take `O=C(O)CN1CCN(Cc2ccc(COc3cccc4c3CN(C3CCC(=O)NC3=O)C4=O)cc2)CC1` (stereo not shown) [ZE26-0001, formic acid]: the EC50 on IKZF1 was 4680 nM; at SALL4, 801 nM. For the same molecule, on ASS1, the “EC50_ASS1 (M)” value is given as “>>”. The 50% inhibitory concentration (IC50) at CRBN stood at 5760 nM.
